# Test results: patent USRE48461E1, “Modulation of androgen receptor expression” (Ionis Pharmaceuticals, Inc., priority 2012, dated 2021)
# Oligonucleotides are written 5' to 3', each unit as a sugar letter and its base; * is a phosphorothioate linkage, no mark a phosphodiester; rarer units and linkages stand in square brackets, end groups in braces. Plain capitals give the bases only. k = constrained ethyl (cEt); [5mC] = 5-methylcytosine; d = 2'-deoxy (DNA)
# Test system: total AR mRNA
# Assay: Total (full-length) AR mRNA in C4-2B MR cells, free uptake
# Type: cell-based, human
# Details: 24 hrs; for Percent inhibition of full-length AR mRNA in C4-2B MR cells: free uptake
# Summary of the method: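 Cells grown in RPMI1640 with 10% FBS received antisense oligonucleotides at 0.04, 0.20, 1.00 and 5.00 μM in the medium by free uptake, no transfection agent. After 24 hrs, total AR mRNA quantified by real-time qPCR with primer probe set RTS3559.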
Substance,Percent inhibition of full-length AR mRNA in C4-2B MR cells (0.04 μM) [%],Percent inhibition of full-length AR mRNA in C4-2B MR cells (0.20 μM) [%],Percent inhibition of full-length AR mRNA in C4-2B MR cells (1.00 μM) [%],Percent inhibition of full-length AR mRNA in C4-2B MR cells (5.00 μM) [%],"total AR transcript levels (C4-2B MR cells, 0.04-5.00 μM free uptake)"
549372 (kA*kA*kG*dT*dT*dG*dT*dA*dG*dT*dA*dG*dT*k[5mC]*kG*k[5mC]) [compound 549372],35,47,88,91,–
"GTTGATTTAATGGTTG (all phosphorothioate, sugars by position not given here; further chemistry not fully specified) [ISIS 549458]",–,–,–,–,reduced total AR transcript levels in a dose dependent manner more extensively than treatment with ISIS 554221
549458 (kG*kT*kT*dG*dA*dT*dT*dT*dA*dA*dT*dG*dG*kT*kT*kG) [compound 549458],41,78,94,97,–
